According to patent US4921866A, “1,3-dioxanes” (Imperial Chemical Industries plc, priority 1987, dated 1990):
Entries after “also recorded” stand apart in the source; their conditions may differ.

What was measured:
[1] = observation of signs of toxicity in rats in test (f); assay type: in vivo, rat; details: oral dose of 100 mg/kg to rats
[2] = system: TXA2 synthase; experiment: test (f): TXB2 production in blood samples from dosed laboratory animals; assay type: in vivo, rat; details: 3 hours following an oral dose of 100 mg/kg to rats
Protocol: (§1) The samples treated with anti-coagulant are first incubated at 37° C. with collegen (at about 100 micro M), then mixed with the cyclooxygenase inhibitor indomethancin (at about […]), centrifuged and the level of the TXA2 metabolite TXB2 determined by a standard radioimmunoassay technique. By comparison of the amount of TXB2 present in the plasma from animals dosed with test compound with that in the plasma of a control group dosed with placebo, the TXA2 synthase inhibitory properties may be assessed.

[3] = molecular target: T1, TXA2 receptor (Rattus norvegicus, UniProt P34978); experiment: test (a): rat aortic strip model, U46619 as agonist; assay type: cell-based; details: read-out: pA2 (converted)
T1 construct: The rat aortic strip model; from tissue; host or cells: rat aortic strip
T1 sequence (P34978 1-341): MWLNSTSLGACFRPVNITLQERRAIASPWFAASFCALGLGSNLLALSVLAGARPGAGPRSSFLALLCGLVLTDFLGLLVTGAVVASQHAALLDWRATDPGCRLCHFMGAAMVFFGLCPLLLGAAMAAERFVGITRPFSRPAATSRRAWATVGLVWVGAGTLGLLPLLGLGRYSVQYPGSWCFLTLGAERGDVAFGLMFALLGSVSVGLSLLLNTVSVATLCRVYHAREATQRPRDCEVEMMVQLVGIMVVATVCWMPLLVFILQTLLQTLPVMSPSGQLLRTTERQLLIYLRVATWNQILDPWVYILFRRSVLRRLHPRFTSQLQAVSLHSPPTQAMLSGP
Text: (a) The rat aortic strip model (based on that devised by Piper and Vane (Nature, 1969, 223, 29-35) in the rabbit) using as agonist the TXA2 mimetic agent known as U46619 (described by R. L. Jones et alia in "Chemistry, Biochemistry and Pharmacological Activity of Prostanoids" edited by S. M. Roberts and F. Scheinmann, at page 211; Pergamon Press, 1979);

[4] = TXA2 antagonist and/or TXA2 synthase inhibitory properties (general statement, standard tests); details: qualitative statement
Protocol: as §1

[5] = molecular target: T2, TXA2 receptor (Homo sapiens, UniProt P21731); experiment: test (b): blood platelet aggregation test, U46619 stimulated, human platelet-rich plasma; assay type: cell-based
T2 construct: aggregating human, citrated, platelet-rich plasma; endogenous in cells; host or cells: human platelets in citrated platelet-rich plasma
T2 sequence (P21731 1-343): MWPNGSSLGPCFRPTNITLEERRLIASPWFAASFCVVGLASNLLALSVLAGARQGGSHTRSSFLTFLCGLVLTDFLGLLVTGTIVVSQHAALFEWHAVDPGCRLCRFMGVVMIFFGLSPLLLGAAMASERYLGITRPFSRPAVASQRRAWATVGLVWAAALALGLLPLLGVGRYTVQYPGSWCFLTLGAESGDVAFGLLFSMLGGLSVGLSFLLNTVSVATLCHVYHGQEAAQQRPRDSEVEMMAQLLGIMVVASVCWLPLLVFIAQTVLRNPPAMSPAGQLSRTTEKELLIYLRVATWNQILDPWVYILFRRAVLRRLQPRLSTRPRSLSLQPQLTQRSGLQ
Text: (b) a blood platelet aggregation test based on that described by Born (Nature, 1962, 194, 927-929) and involving:
(i) aggregating human, citrated, platelet-rich plasma by addition of the TXA2 mimetic agent U46619 so that a dose-response curve is generated;
(ii) generating a dose-response curve for U46619 stimulated platelet aggregation in the presence of increasing amounts of test compound (generally in the range 10^-5 M to 10^-10 M); and
(iii) calculating a KB value indicating potency of TXA2 antagonism for the test compound, average over several concentrations, from the calculated 50% response value for U46619 aggregation in the presence and absence of test compound; or […]

[6] = molecular target: T3, TXA2 synthase (Homo sapiens, UniProt P24557); experiment: test (e): in vitro TXA2 synthase inhibition, human platelet microsomal TXA2 synthase preparation; assay type: biochemical
T3 construct: using a human platelet microsomal TXA2 synthase preparation; from tissue; host or cells: human platelet microsomes
T3 sequence (P24557 1-533): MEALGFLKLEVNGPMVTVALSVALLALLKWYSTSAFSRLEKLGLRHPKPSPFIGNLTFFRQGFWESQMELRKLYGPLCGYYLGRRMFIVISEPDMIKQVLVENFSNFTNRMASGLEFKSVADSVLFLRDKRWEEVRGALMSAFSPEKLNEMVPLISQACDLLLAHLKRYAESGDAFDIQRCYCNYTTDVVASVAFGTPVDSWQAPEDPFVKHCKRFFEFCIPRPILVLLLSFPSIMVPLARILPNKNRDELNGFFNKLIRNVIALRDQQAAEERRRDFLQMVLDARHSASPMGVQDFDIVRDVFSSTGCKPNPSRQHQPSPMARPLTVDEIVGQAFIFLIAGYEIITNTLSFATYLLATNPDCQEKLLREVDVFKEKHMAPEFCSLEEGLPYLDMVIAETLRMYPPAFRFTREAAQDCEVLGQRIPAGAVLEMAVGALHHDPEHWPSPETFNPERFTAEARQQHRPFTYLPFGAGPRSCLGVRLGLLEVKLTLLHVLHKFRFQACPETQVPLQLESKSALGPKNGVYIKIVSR

Structure (SMILES)	TXA2 antagonist and/or TXA2 synthase inhibitory properties [4]	other results
O=C(O)CC/C=C\C[C@@H]1CO[C@H](c2cccnc2)O[C@@H]1c1ccccc1O (relative stereo) [Example 1, 4(Z)-6-([2,4,5-cis]-4-o-hydroxyphenyl-2-[3-pyridyl]-1,3-dioxan-5-yl)hexenoic acid]	combined antagonist and TXA2 synthase inhibitory properties; also recorded: both TXA2 antagonist and TXA2 synthase inhibitory properties	observable signs of toxicity to the test animals [1]: without any observable signs of toxicity; inhibition of TXB2 production [2]: essentially complete inhibition of TXB2 production; Kb [3]: 79.4 nM; Kb [5]: 17 nM; IC50 [6]: 3140 nM
O=C(O)CCC/C=C\C[C@@H]1CO[C@H](Cc2cccnc2)O[C@@H]1c1ccccc1O (relative stereo) [Example 2, 5(Z)-7-([2,4,5-cis]-4-o-hydroxyphenyl-2-[3-pyridylmethyl]-1,3-dioxan-5-yl)heptenoic acid]	combined antagonist and TXA2 synthase inhibitory properties	
O=C(O)CC/C=C\C[C@@H]1CO[C@H](c2ccccn2)O[C@@H]1c1ccccc1O (relative stereo) [Example 4, 4(Z)-6-([2,4,5-cis]-4-o-hydroxyphenyl-2-[2-pyridyl]-1,3-dioxan-5-yl)hexenoic acid]	TXA2 antagonist properties	
O=C(O)CCCC/C=C\C[C@@H]1CO[C@H](c2ccncc2)O[C@@H]1c1ccccc1O (relative stereo) [Example 9, 6(Z)-8-([2,4,5-cis]-4-o-hydroxyphenyl-2-[4-pyridyl]-1,3-dioxan-5-yl)octenoic acid]	predominantly TXA2 synthase inhibitory properties	
O=C(O)CC/C=C\C[C@@H]1CO[C@H](Cc2ccccn2)O[C@@H]1c1ccccc1O (relative stereo) [Example 11, 4(Z)-6-([2,4,5-cis]-4-o-hydroxyphenyl-2-[2-pyridylmethyl]-1,3-dioxan-5-yl)hexenoic acid]	TXA2 antagonist properties	
O=C(O)CC/C=C\C[C@@H]1CO[C@H](Cc2cccnc2)O[C@@H]1c1ccccc1O (relative stereo) [Example 12, 4(Z)-6-([2,4,5-cis]-4-o-hydroxyphenyl-2-[3-pyridylmethyl]-1,3-dioxan-5-yl)hexenoic acid]	combined antagonist and TXA2 synthase inhibitory properties	
O=C(O)CCC/C=C\C[C@@H]1CO[C@H](Cc2cccnc2)O[C@@H]1c1ccccc1 (relative stereo) [Example 16, 5(Z)-7-(4-phenyl-2-[3-pyridylmethyl]-1,3-dioxan-5-yl)heptenoic acid]	predominantly TXA2 synthase inhibitory properties	
CC(C)(c1cccnc1)[C@H]1OC[C@@H](C/C=C\CCC(=O)O)[C@@H](c2ccccc2O)O1 (relative stereo) [Example 17, 4(Z)-6-([2,4,5-cis]-4-o-hydroxyphenyl-2-[1-(3-pyridyl)-1-methylethyl]-1,3-dioxan-5-yl)hexenoic acid]	combined antagonist and TXA2 synthase inhibitory properties	
CC(C)(Cc1cccnc1)[C@H]1OC[C@@H](C/C=C\CCC(=O)O)[C@@H](c2ccccc2O)O1 (relative stereo) [Example 18, 4(Z)-6-([2,4,5-cis]-4-o-hydroxyphenyl-2-[2-(3-pyridyl)-1,1-dimethylethyl]-1,3-dioxan-5-yl)hexenoic acid]	combined antagonist and TXA2 synthase inhibitory properties	
CC(C)(c1cccnc1)[C@H]1OC[C@@H](C/C=C\CCCC(=O)O)[C@@H](c2ccccc2O)O1 (relative stereo) [Example 19, 5(Z)-7-([2,4,5-cis]-4-o-hydroxyphenyl-2[1-(3-pyridyl)-1-methylethyl]-1,3-dioxan-5-yl)heptenoic acid]	combined antagonist and TXA2 synthase inhibitory properties	
CC(C)(Oc1cccnc1)[C@H]1OC[C@@H](C/C=C\CCC(=O)O)[C@@H](c2ccccc2O)O1 (relative stereo) [Example 23, 4(Z)-6-([2,4,5-cis]-4-o-hydroxyphenyl-2-[1-(3-pyridyloxy)-1-methylethyl]-1,3-dioxan-5-yl)hexenoic acid]	combined antagonist and TXA2 synthase inhibitory properties	
